Experiments:
[1] = system: normal primary NK cells, pool 1 (3 donors) (IL-2 2.5 ng/mL); assay: drug sensitivity score (DSS) (DSS units); higher = more sensitive; extreme values may be limits of the assay; conditions: 72 h
IMC-1 (IL-2 20 ng/mL) [2] = assay: as above; conditions: 72 h
NK-YS (IL-2 2.5 ng/mL) [3] = assay: as above; conditions: 72 h
YT (IL-2 2.5 ng/mL) [4] = assay: as above; conditions: 72 h
DERL-7 (IL-2 2.5 ng/mL) [5] = assay: as above; conditions: 72 h
[6] = system: normal primary NK cells, pool 2 (3 donors) (IL-2 2.5 ng/mL); assay: as above; conditions: 72 h
NK-92 (IL-2 2.5 ng/mL) [7] = assay: as above; conditions: 72 h
KHYG-1 (IL-2 2.5 ng/mL) [8] = assay: as above; conditions: 72 h
[9] = system: normal primary NK cells, pool 1 (3 donors), resting (IL-2 0 ng/mL); assay: as above; conditions: 72 h
[10] = system: normal primary NK cells, pool 3 (3 donors) (IL-2 2.5 ng/mL); assay: as above; conditions: 72 h
NKL (IL-2 2.5 ng/mL) [11] = assay: as above; conditions: 72 h
KAI3 (IL-2 2.5 ng/mL) [12] = assay: as above; conditions: 72 h
SNK-6 (IL-2 2.5 ng/mL) [13] = assay: as above; conditions: 72 h
[14] = system: normal NK cells expanded with K562-aAPC; assay: as above; conditions: 72 h; IL-2 2.5 ng/mL
Procedure: (§1)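 Drug sensitivity and resistance testing on K562-aAPC-expanded normal NK cells: 5 concentrations (10-fold steps over a 10,000-fold range), 72 h at 37 °C, viability by CellTiter-Glo normalised to DMSO and benzethonium chloride controls; DSS from the fitted curve.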

[15] = system: normal NK cells expanded with K562-aAPC; assay: percent inhibition of viability; higher = more inhibition; conditions: 72 h, IL-2 2.5 ng/mL
Procedure: as §1

[16] = system: normal primary NK cells, pool 1 (3 donors) (IL-2 2.5 ng/mL); assay: as above; conditions: 72 h
IMC-1 (IL-2 20 ng/mL) [17] = assay: as above; conditions: 72 h
NK-YS (IL-2 2.5 ng/mL) [18] = assay: as above; conditions: 72 h
YT (IL-2 2.5 ng/mL) [19] = assay: as above; conditions: 72 h
DERL-7 (IL-2 2.5 ng/mL) [20] = assay: as above; conditions: 72 h
[21] = system: normal primary NK cells, pool 2 (3 donors) (IL-2 2.5 ng/mL); assay: as above; conditions: 72 h
NK-92 (IL-2 2.5 ng/mL) [22] = assay: as above; conditions: 72 h
KHYG-1 (IL-2 2.5 ng/mL) [23] = assay: as above; conditions: 72 h
[24] = system: normal primary NK cells, pool 1 (3 donors), resting (IL-2 0 ng/mL); assay: as above; conditions: 72 h
[25] = system: normal primary NK cells, pool 3 (3 donors) (IL-2 2.5 ng/mL); assay: as above; conditions: 72 h
NKL (IL-2 2.5 ng/mL) [26] = assay: as above; conditions: 72 h
KAI3 (IL-2 2.5 ng/mL) [27] = assay: as above; conditions: 72 h
SNK-6 (IL-2 2.5 ng/mL) [28] = assay: as above; conditions: 72 h

CO[C@H](C(=O)[C@@H](O)[C@@H](C)O)[C@@H]1Cc2cc3cc(O[C@H]4C[C@@H](O[C@@H]5C[C@@H](O)[C@H](O)[C@@H](C)O5)[C@H](O)[C@@H](C)O4)c(C)c(O)c3c(O)c2C(=O)[C@H]1O[C@H]1C[C@@H](O[C@@H]2C[C@@H](O)[C@@H](O[C@@H]3C[C@](C)(O)[C@H](O)[C@@H](C)O3)[C@@H](C)O2)[C@H](O)[C@@H](C)O1 [Plicamycin] (max concentration tested 10000 nM)
Conditions | drug sensitivity score
DERL-7 (IL-2 2.5 ng/mL) [5] | 28.2
IMC-1 (IL-2 20 ng/mL) [2] | 13.4
KAI3 (IL-2 2.5 ng/mL) [12] | 25.2
KHYG-1 (IL-2 2.5 ng/mL) [8] | 28.6
NK-92 (IL-2 2.5 ng/mL) [7] | 19.7
NK-YS (IL-2 2.5 ng/mL) [3] | 31.2
NKL (IL-2 2.5 ng/mL) [11] | 29.5
SNK-6 (IL-2 2.5 ng/mL) [13] | 34.5
YT (IL-2 2.5 ng/mL) [4] | 30.5
[1] | 22.1
[6] | 12.3
[9] | 20.4
[10] | 12.1
[14] | 7.76

percent inhibition of viability [%]
Conditions | 1 nM | 10 nM | 100 nM | 1000 nM | 10000 nM
DERL-7 (IL-2 2.5 ng/mL) [20] | 0.06 | -2.61 | 86.8 | 101 | 101
IMC-1 (IL-2 20 ng/mL) [17] | -2.17 | -0.08 | -16.4 | 69.3 | 100
KAI3 (IL-2 2.5 ng/mL) [27] | -19.1 | -16.3 | 61.1 | 93.9 | 106
KHYG-1 (IL-2 2.5 ng/mL) [23] | -6.39 | 2.63 | 87.8 | 106 | 110
NK-92 (IL-2 2.5 ng/mL) [22] | -10.9 | -13.5 | 17.8 | 94.4 | 108
NK-YS (IL-2 2.5 ng/mL) [18] | -4.88 | 6.73 | 97.1 | 106 | 108
NKL (IL-2 2.5 ng/mL) [26] | -8.9 | -9.19 | 97.5 | 108 | 110
SNK-6 (IL-2 2.5 ng/mL) [28] | 6.54 | 44 | 92.3 | 98.5 | 97.8
YT (IL-2 2.5 ng/mL) [19] | -0.6 | 0.99 | 99 | 109 | 110
[15] | -1.48 | 0.95 | 3.45 | 18.5 | 86.7
[16] | -2.64 | -1.48 | 31 | 97.5 | 98.2
[21] | -13 | -9.37 | 5.25 | 58.7 | 91.9
[24] | -24.1 | -3.24 | 28.7 | 88.3 | 89.5
[25] | -7.87 | -12.9 | 5.62 | 56.1 | 95.4

CC1(COc2ccc3c(c2)ncn3-c2ccc3cccc(N4CCC(N)CC4)c3n2)COC1 [Crenolanib] (max concentration tested 10000 nM)
Conditions | drug sensitivity score
DERL-7 (IL-2 2.5 ng/mL) [5] | 11.6
IMC-1 (IL-2 20 ng/mL) [2] | 6.39
KAI3 (IL-2 2.5 ng/mL) [12] | 7.36
KHYG-1 (IL-2 2.5 ng/mL) [8] | 8.48
NK-92 (IL-2 2.5 ng/mL) [7] | 11.7
NK-YS (IL-2 2.5 ng/mL) [3] | 8.29
NKL (IL-2 2.5 ng/mL) [11] | 13.3
SNK-6 (IL-2 2.5 ng/mL) [13] | 15.2
YT (IL-2 2.5 ng/mL) [4] | 9.15
[1] | 9.05
[6] | 10.1
[9] | 4.78
[10] | 9.06
[14] | 10.6

percent inhibition of viability [%]
Conditions | 1 nM | 10 nM | 100 nM | 1000 nM | 10000 nM
DERL-7 (IL-2 2.5 ng/mL) [20] | 9.4 | 0.68 | 2.82 | 50.6 | 101
IMC-1 (IL-2 20 ng/mL) [17] | -5.33 | 1.06 | 0.71 | 5.26 | 101
KAI3 (IL-2 2.5 ng/mL) [27] | -3.85 | -6.78 | -18.2 | 10.7 | 102
KHYG-1 (IL-2 2.5 ng/mL) [23] | 2.86 | -0.81 | 5.22 | 18.1 | 99.8
NK-92 (IL-2 2.5 ng/mL) [22] | -3.46 | -7.66 | 2.06 | 50.1 | 102
NK-YS (IL-2 2.5 ng/mL) [18] | -3.61 | -4.32 | -1.2 | 16.6 | 101
NKL (IL-2 2.5 ng/mL) [26] | 12.4 | 0.04 | 22.6 | 53 | 103
SNK-6 (IL-2 2.5 ng/mL) [28] | 21.7 | 16.3 | 25 | 54.8 | 101
YT (IL-2 2.5 ng/mL) [19] | 4.17 | 1.51 | 11.1 | 24.2 | 99.7
[15] | -3.71 | -1.22 | -0.36 | 37.5 | 101
[16] | 2.4 | -5.93 | -3.03 | 22.4 | 100
[21] | -14.1 | -6.62 | 2.71 | 32 | 99.4
[24] | -7.18 | -27.8 | -5.86 | -10.3 | 98.2
[25] | -13.7 | -6.99 | 10.3 | 22.4 | 100
